Tests used:
[1] = test system: B16; test: Inhibition of melanin production in mouse B16 cells at 100 uM after 48 hrs by spectrophotometry relative to control; format: functional; settings: B16, 48 h
[2] = test system: B16; test: Inhibition of melanin production in mouse B16 cells at 0.1 uM after 48 hrs by spectrophotometry relative to control; format: functional; settings: B16, 48 h
[3] = Cytotoxicity against mouse B16 cells assessed as viability at 0.1 uM after 48 hrs by viacount reagent staining technique relative to control; format: cell-based; settings: read-out: Activity

Row | SMILES | inhibition at 100 µM [1] [%] | inhibition at 0.1 µM [2] [%] | viability at 48 h, 0.1 µM [3] [%]
1 | OC[C@H]1O[C@@H](Oc2ccc(O)cc2)[C@H](O)[C@@H](O)[C@@H]1O [ARBUTIN] | 33 |  | 
2 | C=C(C)[C@@]12OC3(/C=C/CCCCC)O[C@@H]1[C@@H]1[C@@H]4O[C@]4(CO)[C@@H](O)[C@]4(O)C(=O)C(C)=C[C@H]4[C@@]1(O3)[C@H](C)[C@H]2OC(=O)/C=C/c1ccccc1 [HIRSEIN A] |  | 37 | 99.3
3 | C=C(C)[C@@]12OC3(CCCCCCCCC)O[C@@H]1[C@@H]1[C@@H]4O[C@]4(CO)[C@@H](O)[C@]4(O)C(=O)C(C)=C[C@H]4[C@@]1(O3)[C@H](C)[C@H]2OC(=O)/C=C/c1ccc(O)cc1 [HIRSEIN B] |  | 26 | 97.5

Reference: ChEMBL document CHEMBL1152346, “Hirseins A and B, daphnane diterpenoids from Thymelaea hirsuta that inhibit melanogenesis in B16 melanoma cells” (J Nat Prod, 2009)
